Data published in ChEMBL document CHEMBL4680227, “Design and synthesis of selective degraders of EGFR mutant” (Eur J Med Chem, 2020).
Calls of active or inactive are those of the source. The rule behind the calls is not given here.

What was measured:
[1] = target: T1, von Hippel-Lindau disease tumor suppressor/Epidermal growth factor receptor (Homo sapiens, UniProt P00533+P40337); assay: Protac activity at VHL/EGFR in human A431 cells assessed as EGFR degradation by Western blot analysis; format: cell-based; conditions: a-431
[2] = target: Protein cereblon/Epidermal growth factor receptor (Homo sapiens, UniProt P00533+Q96SW2); assay: Protac activity at CRBN/EGFR in human A431 cells assessed as EGFR degradation by Western blot analysis; format: cell-based; conditions: a-431
[3] = target: E3 ubiquitin-protein ligase Mdm2/Epidermal growth factor receptor (Homo sapiens, UniProt Q00987+P00533); assay: Protac activity at MDM2/EGFR in human A431 cells assessed as EGFR degradation by Western blot analysis; format: cell-based; conditions: a-431
[4] = target: E3 ubiquitin-protein ligase Mdm2/Epidermal growth factor receptor (Homo sapiens, UniProt Q00987+P00533, T790M/L858M); assay: Protac activity at MDM2/EGFR L858R/T790M mutant in human NCI-H1975 cells assessed as EGFR degradation by Western blot analysis; format: cell-based
[5] = tested on: von Hippel-Lindau disease tumor suppressor/Epidermal growth factor receptor (Homo sapiens), P00533+P40337 [L858R,T790M]; assay: (§1) Protac activity at VHL/EGFR L858R/T790M mutant in human NCI-H1975 cells assessed as EGFR degradation by Western blot analysis; format: cell-based
[6] = target: von Hippel-Lindau disease tumor suppressor/Epidermal growth factor receptor (Homo sapiens, UniProt P00533+P40337, T790M/L858R); assay: as §1; format: cell-based
[7] = tested on: von Hippel-Lindau disease tumor suppressor/Epidermal growth factor receptor (Homo sapiens), P00533+P40337 [L858R,T790M]; assay: Protac activity at VHL/EGFR L858R/T790M mutant in human NCI-H1975 cells assessed as EGFR degradation at >2000 nM measured after 16 hrs by Western blot analysis; format: cell-based; conditions: dose nM >2000, time 16.0 hrs
[8] = tested on: von Hippel-Lindau disease tumor suppressor/Epidermal growth factor receptor (Homo sapiens), P00533+P40337 [L858R,T790M]; assay: Protac activity at VHL/EGFR L858R/T790M mutant in human NCI-H1975 cells assessed as reduction in EGFR autophosphorylation measured after 16 hrs by Western blot analysis; format: cell-based
[9] = Effect on ERK level in human NCI-H1975 cells up to 10000 nM treated 8 hrs post serum starvation measured after 16 hrs by Western blot analysis; format: ADME, cell-based; conditions: nci-h1975, 16 h
[10] = tested on: von Hippel-Lindau disease tumor suppressor/Epidermal growth factor receptor (Homo sapiens), P00533+P40337 [L858R,T790M]; assay: Protac activity at VHL/EGFR L858R/T790M mutant in human NCI-H1975 cells assessed as induction of EGFR degradation at 10 to 100 nM measured after 1 hr in presence of protein synthesis inhibitor cycloheximide by Western blot analysis; format: cell-based; conditions: dose 10-100 nM
[11] = tested on: von Hippel-Lindau disease tumor suppressor/Epidermal growth factor receptor (Homo sapiens), P00533+P40337 [L858R,T790M]; assay: Protac activity at VHL/EGFR L858R/T790M mutant in human NCI-H1975 cells assessed as induction of EGFR degradation at 100 nM in presence of EGFR L858R/T790M mutant ligand osimertinib by Western blot analysis; format: cell-based
[12] = tested on: von Hippel-Lindau disease tumor suppressor/Epidermal growth factor receptor (Homo sapiens), P00533+P40337 [L858R,T790M]; assay: Protac activity at VHL/EGFR L858R/T790M mutant in human NCI-H1975 cells assessed as reduction in ERK phosphorylation at >2000 nM measured after 16 hrs by Western blot analysis; format: cell-based; conditions: dose nM >2000, time 16.0 hrs
[13] = target: Epidermal growth factor receptor (Homo sapiens, UniProt P00533); assay: Inhibition of wild-type EGFR (unknown origin) using Poly (Glu, Tyr) 4:1 as substrate measured after 1 hr by ELISA
[14] = tested on: von Hippel-Lindau disease tumor suppressor/Epidermal growth factor receptor (Homo sapiens), P00533+P40337 [L858R,T790M]; assay: Protac activity at VHL/EGFR L858R/T790M mutant in human NCI-H1975 cells assessed as reduction in ERK phosphorylation measured after 16 hrs by Western blot analysis; format: cell-based
[15] = tested on: von Hippel-Lindau disease tumor suppressor/Epidermal growth factor receptor (Homo sapiens), P00533+P40337 [L858R,T790M]; assay: Protac activity at VHL/EGFR L858R/T790M mutant in human NCI-H1975 cells assessed as EGFR degradation measured after 16 hrs by Western blot analysis; format: cell-based
[16] = tested on: von Hippel-Lindau disease tumor suppressor/Epidermal growth factor receptor (Homo sapiens), P00533+P40337 [L858R,T790M]; assay: Protac activity at VHL/EGFR L858R/T790M mutant in human NCI-H1975 cells assessed as induction of EGFR degradation at 10 to 100 nM measured after 12 hrs in presence of proteasome inhibitor MG132 by Western blot analysis; format: cell-based; conditions: dose 10-100 nM
[17] = tested on: von Hippel-Lindau disease tumor suppressor/Epidermal growth factor receptor (Homo sapiens), P00533+P40337 [L858R,T790M]; assay: Protac activity at VHL/EGFR L858R/T790M mutant in human NCI-H1975 cells assessed as reduction in AKT phosphorylation measured after 16 hrs by Western blot analysis; format: cell-based
[18] = Effect on AKT level in human NCI-H1975 cells up to 10000 nM treated 8 hrs post serum starvation measured after 16 hrs by Western blot analysis; format: ADME, cell-based; conditions: nci-h1975, 16 h
[19] = tested on: von Hippel-Lindau disease tumor suppressor/Epidermal growth factor receptor (Homo sapiens), P00533+P40337 [L858R,T790M]; assay: Protac activity at VHL/EGFR L858R/T790M mutant in human NCI-H1975 cells assessed as induction of EGFR degradation at 100 nM in presence of VHL ligand (S,R,S)-AHPC osimertinib by Western blot analysis; format: cell-based
[20] = tested on: von Hippel-Lindau disease tumor suppressor/Epidermal growth factor receptor (Homo sapiens), P00533+P40337 [L858R,T790M]; assay: Protac activity at VHL/EGFR L858R/T790M mutant in human NCI-H1975 cells assessed as induction of EGFR degradation at 200 nM measured after 6 hrs by Western blot analysis relative to control; format: cell-based
[21] = tested on: NCI-H1975; assay: Antiproliferative activity against human NCI-H1975 cells measured after 72 hrs by CCK8 assay; format: functional, cell-based; conditions: NCI-H1975, 72 h
[22] = tested on: von Hippel-Lindau disease tumor suppressor/Epidermal growth factor receptor (Homo sapiens), P00533+P40337 [L858R,T790M]; assay: Protac activity at VHL/EGFR L858R/T790M mutant in human NCI-H1975 cells assessed as reduction in AKT phosphorylation at >2000 nM measured after 16 hrs by Western blot analysis; format: cell-based; conditions: dose nM >2000, time 16.0 hrs
[23] = target: Epidermal growth factor receptor (Homo sapiens, UniProt P00533, L858R/T790M); assay: Inhibition of EGFR L858R/T790M (unknown origin) using Poly (Glu, Tyr) 4:1 as substrate measured after 1 hr by ELISA
[24] = tested on: von Hippel-Lindau disease tumor suppressor/Epidermal growth factor receptor (Homo sapiens), P00533+P40337 [L858R,T790M]; assay: Protac activity at VHL/EGFR L858R/T790M mutant in human NCI-H1975 cells assessed as induction of EGFR degradation at 100 nM in presence of EGFR L858R/T790M mutant ligand XTF-262 by Western blot analysis; format: cell-based
[25] = target: T1, von Hippel-Lindau disease tumor suppressor/Epidermal growth factor receptor; assay: Protac activity at VHL/EGFR in human A431 cells assessed as reduction in AKT phosphorylation up to 10000 nM measured after 16 hrs by Western blot analysis; format: cell-based; conditions: A-431, dose nM <=10000, time 16.0 hrs
[26] = tested on: von Hippel-Lindau disease tumor suppressor/Epidermal growth factor receptor (Homo sapiens), P00533+P40337 [L858R,T790M]; assay: Protac activity at VHL/EGFR L858R/T790M mutant in human NCI-H1975 cells assessed as induction of EGFR degradation at 200 nM measured after 24 hrs by Western blot analysis; format: cell-based
[27] = tested on: von Hippel-Lindau disease tumor suppressor/Epidermal growth factor receptor (Homo sapiens), P00533+P40337 [L858R,T790M]; assay: Protac activity at VHL/EGFR L858R/T790M mutant in human NCI-H1975 cells assessed as induction of EGFR degradation at 200 nM measured after 12 hrs by Western blot analysis relative to control; format: cell-based
[28] = target: T1, von Hippel-Lindau disease tumor suppressor/Epidermal growth factor receptor; assay: Protac activity at VHL/EGFR in human A431 cells assessed as reduction in ERK phosphorylation up to 10000 nM measured after 16 hrs by Western blot analysis; format: cell-based; conditions: A-431, dose nM <=10000, time 16.0 hrs
[29] = target: T1, von Hippel-Lindau disease tumor suppressor/Epidermal growth factor receptor; assay: Protac activity at VHL/EGFR in human A431 cells assessed as EGFR degradation up to 10000 nM measured after 16 hrs by Western blot analysis; format: cell-based; conditions: A-431, dose nM <=10000, time 16.0 hrs

Which DC50 [1] does the source give for `C=CC(=O)Nc1cccc(-n2c(=O)cc(C)c3cnc(Nc4ccc(N5CCN(CCCC(=O)N[C@H](C(=O)N6C[C@H](O)C[C@H]6C(=O)NCc6ccc(-c7scnc7C)cc6)C(C)(C)C)CC5)cc4OC)nc32)c1` here?
The DC50 was over 2 µM.

Which DC50 [2] does the source give for `C=CC(=O)Nc1cccc(-n2c(=O)cc(C)c3cnc(Nc4ccc(N5CCN(C(=O)CCCCCCCCCCC(=O)Nc6cccc7c6C(=O)N(C6CCC(=O)NC6=O)C7=O)CC5)cc4OC)nc32)c1` (configuration not stated) here?
Its DC50 is over 2 µM.

What does the source list for `C=CC(=O)Nc1cccc(-n2c(=O)cc(C)c3cnc(Nc4ccc(N5CCN(C(=O)CCCCCNC(=O)c6ccc(NC(=O)[C@@H]7N[C@@H](CC(C)(C)C)[C@](C#N)(c8ccc(Cl)cc8F)[C@H]7c7cccc(Cl)c7F)c(OC)c6)CC5)cc4OC)nc32)c1`?
DC50 [3]: > 2 µM; DC50 [4]: 0.077 µM

What does the source list for `C=CC(=O)Nc1cccc(-n2c(=O)cc(C)c3cnc(Nc4ccc(N5CCN(C(=O)CCCCCCCCCCC(=O)N[C@H](C(=O)N6C[C@H](O)C[C@H]6C(=O)NCc6ccc(-c7scnc7C)cc6)C(C)(C)C)CC5)cc4OC)nc32)c1`?
DC50 [1]: > 2 µM; Activity [5]: Dose-dependent effect

Which DC50 [1] does the source give for `C=CC(=O)Nc1cccc(-n2c(=O)cc(C)c3cnc(Nc4ccc(N5CCN(C(=O)CCCCCCCCC(=O)N[C@H](C(=O)N6C[C@H](O)C[C@H]6C(=O)NCc6ccc(-c7scnc7C)cc6)C(C)(C)C)CC5)cc4OC)nc32)c1` here?
Its DC50 is over 2 µM.

What about the DC50 [6] of the same compound?
The DC50 was 0.069 µM.

Which DC50 [1] does the source give for `C=CC(=O)Nc1cccc(-n2c(=O)cc(C)c3cnc(Nc4ccc(N5CCN(CCCCCCCCCC(=O)N[C@H](C(=O)N6C[C@H](O)C[C@H]6C(=O)NCc6ccc(-c7scnc7C)cc6)C(C)(C)C)CC5)cc4OC)nc32)c1` here?
Its DC50 is over 2 µM.

What about the DC50 [6] of the same compound?
The DC50 was 0.132 µM.

Which results are given for `C=CC(=O)Nc1cccc(-n2c(=O)cc(C)c3cnc(Nc4ccc(N5CCN(C(=O)CCCCCCCNC(=O)c6ccc(NC(=O)[C@@H]7N[C@@H](CC(C)(C)C)[C@](C#N)(c8ccc(Cl)cc8F)[C@H]7c7cccc(Cl)c7F)c(OC)c6)CC5)cc4OC)nc32)c1`?
DC50 [3]: > 2 µM; DC50 [4]: 0.253 µM

Which Activity [7] does the source give for `C=CC(=O)Nc1cccc(-n2c(=O)cc(C)c3cnc(Nc4ccc(N5CCN(CCCCCC(=O)N[C@H](C(=O)N6C[C@H](O)C[C@H]6C(=O)NCc6ccc(-c7scnc7C)cc6)C(C)(C)C)CC5)cc4OC)nc32)c1` here?
Its Activity is “Active”.

What about the Activity [8] of the same compound?
The Activity was “Dose-dependent effect”.

And the Activity [9]?
Its Activity is “Non-Toxic”.

And the Activity [10]?
Its Activity is “Active”.

And the Activity [11]?
Its Activity is “inactive”.

What about the Activity [12] of the same compound?
The Activity was “inactive”.

What about the IC50 [13] of the same compound?
The IC50 was over 1 µM.

What about the Activity [14] of the same compound?
Its Activity is “Dose-dependent effect”.

What about the Activity [15] of the same compound?
The Activity was “Dose-dependent effect”.

What about the Activity [16] of the same compound?
The Activity was “inactive”.

What about the Activity [17] of the same compound?
Its Activity is “Dose-dependent effect”.

What about the Activity [18] of the same compound?
Its Activity is “Non-Toxic”.

What about the Activity [19] of the same compound?
The Activity was “inactive”.

What about the DC50 [1] of the same compound?
The DC50 was over 2 µM.

And the Activity [20]?
Its Activity is 63%.

What about the IC50 [21] of the same compound?
The IC50 was 0.506 µM.

What about the Activity [22] of the same compound?
Its Activity is “inactive”.

And the IC50 [23]?
Its IC50 is 0.0193 µM.

And the Activity [24]?
The Activity was “inactive”.

And the DC50 [6]?
The DC50 was 0.0059 µM.

And the Activity [25]?
Its Activity is “inactive”.

And the Activity [26]?
The Activity was “inactive”.

What about the Activity [27] of the same compound?
Its Activity is 89%.

And the Activity [28]?
Its Activity is “inactive”.

And the Activity [29]?
The Activity was “inactive”.
